In patent US6713474B2, “Pyrrolopyrimidines as therapeutic agents” (Abbott GmbH & Co. KG, priority 1998, dated 2004):

melting point | Compound
110 °C | N#Cc1c(OCCN2CCOCC2)cccc1Oc1ccc(-c2cn(C3CCOCC3)c3ncnc(N)c23)cc1 [Example 50, 2-(4-(4-Amino-7-(4-tetrahydropyranyl)-7H-pyrrolo[2,3-d]pyrimidin-5-yl)phenoxy]-6-(2-morpholinoethoxy)benzonitrile]
212 to 213 °C | N#Cc1c(NCCc2ccncc2)cccc1Oc1ccc(-c2cn(C3CCOC3)c3ncnc(N)c23)cc1 (stereo not shown) [Example 38, 2-[4-(4-Amino-7-(3-tetrahydrofuryl)-7H-pyrrolo[2,3-d]pyrimidin-5-yl)phenoxy]-6-(2-(4-pyridyl)ethylamino)-benzonitrile]
284 to 285 °C | Cl.NCCn1cc(-c2ccc(Oc3ccccc3)cc2)c2c(N)ncnc21
160.5 to 161 °C | CC(C)C(=O)n1cc(-c2ccc(Oc3ccccc3)cc2)c2c(N)ncnc21 [Example 173, 7-Isobutyryl-5-(4-phenoxyphenyl)-7H-pyrrolo[2,3-d]pyrimidin-4-ylamine]
163 to 164 °C | CC(C(=O)NCCN(C)C)n1cc(-c2ccc(Oc3ccccc3)cc2)c2c(N)ncnc21 (stereo not shown) [Example 149, N-(2-Dimethylaminoethyl)-2-[4-amino-5-(4-phenoxyphenyl)-7H-pyrrolo[2,3-d]pyrimidin-7-yl)propionamide]
304 to 306 °C (dec.) | CN1CCN([C@H]2CCC[C@H](n3cc(-c4ccc(Oc5ccccc5)cc4)c4c(N)ncnc43)C2)CC1.Cl.Cl.Cl (relative stereo) (hydrate or solvate)
125 °C | N#Cc1ccccc1Oc1ccc(-c2cn(C3CCOCC3)c3ncnc(N)c23)cc1 [Example 42, 2-[4-(4-Amino-7-(4-tetrahydropyranyl)-7H-pyrrolo[2,3-d]pyrimidin-5-yl)phenoxy]benzonitrile]
120 to 123 °C | N#Cc1c(NCCc2ccncc2)cccc1Oc1ccc(-c2cn(C3CCOCC3)c3ncnc(N)c23)cc1 [Example 51, 2-[4-(4-Amino-7-(4-tetrahydropyranyl)-7H-pyrrolo[2,3-d]pyrimidin-5-yl)phenoxy]-6-(2-(4-pyridyl)ethylamino)benzonitrile]
139 to 140 °C | CCOC(=O)C(C)n1cc(-c2ccc(Oc3ccccc3)cc2)c2c(N)ncnc21 (stereo not shown) [Example 148, Ethyl 2-[4-Amino-5-(4-phenoxyphenyl)-7H-pyrrolo[2,3-d]pyrimidin-7-yl]propionate]
164 to 165 °C | Nc1ncnc2c1c(-c1ccc(Oc3ccccc3)cc1)cn2CC(=O)NCCN1CCOCC1 [Example 153, N-(2-Morpholinoethyl)-2-[4-amino-5-(4-phenoxyphenyl)-7H-pyrrolo[2,3-d]pyrimidin-7-yl]acetamide]
101 to 104 °C | Nc1ncnc2c1c(-c1ccc(Oc3ccccc3)cc1)cn2[C@H]1CC[C@@H](N2CCCC2)CC1 [Example 193, cis-5-(4-Phenoxyphenyl)-7-(4-pyrrolidinocyclohex-1-yl)-7H-pyrrolo[2,3-d]pyrimidin-4-ylamine]
122 to 122.5 °C | CCN1CCCC1CNC(=O)Cn1cc(-c2ccc(Oc3ccccc3)cc2)c2c(N)ncnc21 (stereo not shown) [Example 155, N-(N-Ethylpyrrolidin-2-ylmethyl)-2-[4-amino-5-(4-phenoxyphenyl)-7H-pyrrolo[2,3-d]-pyrimidin-7-yl]acetamide]
188 to 188.5 °C | Nc1ncnc2c1c(-c1ccc(Oc3ccccc3)cc1)cn2S(=O)(=O)C1CCCC1 [Example 168, 7-Cyclopentanesulphonyl-5-(4-phenoxyphenyl)-7H-pyrrolo[2,3-d]pyrimidin-4-ylamine]
